# Assay results as given in patent US20090247732A1 (Optimer Pharmaceuticals, Inc., priority 2003, published 2009).
# Ends that are not written are not given here. Peptide text beside a SMILES is read from it. * marks the point of attachment. Fmoc = O=C(OCC1c2ccccc2-c2ccccc21)*
# Tests used:
# trypsin [1] = assay: Degradation study with trypsin (LCMS, product ratios by PDA integration); format: in vitro ADME; parameters: key to Deg 1 / Deg 2: product ratio (%) by PDA peak integration; conditions: for Deg 1 / Deg 2 / mode of enzymatic degradation (cleavage site / products): trypsin; for Deg 1 / Deg 2: pH 7.5; for Parent (%): 120 units trypsin, 0.1 M pH 7.5 potassium phosphate buffer; for mode of enzymatic degradation (cleavage site / products): in words
# Protocol: Degradation Study: A solution of 1 (1 mg) in 0.1 M, pH 7.5 potassium phosphate buffer (1 mL) was treated with 120 units of trypsin (10 μL of a 1 mg/mL solution of trypsin 12000 units/mg). A 20 μL aliquot of the sample was immediately analyzed by LCMS.
# Column: Waters Symmetry 300, 4.6×250 mm, C18, 5 micron particle size.
# Solvent B: Acetonitrile/0.1% TFA
# Gradient: 15-40% B over 30 minutes; 15% B isocratic for 10 minutes
# The initial injection was defined as “time 0” and one subsequent injection was carried out at 40 minutes. The degradation products were characterized by mass spectrometry using electrospray positive ionization (ES^+). Product ratios were determined by integration of photodiode array (PDA) spectra.
# trypsin [2] = assay: trypsin in 0.1 M, pH 7.5 potassium phosphate buffer; conditions: up to 40 minutes
# [3] = degradation product 1, time 40 minutes
# [4] = degradation product 2, time 40 minutes
# [5] = time 40 (injection at 40 minutes)
Compound,"Deg 1 (trypsin [1]; degradation product 1, time 0)",Deg 1 (trypsin [1]; [3]),"Deg 2 (trypsin [1]; degradation product 2, time 0)",Deg 2 (trypsin [1]; [4]),Parent (%) (trypsin [1]; time 0 (initial injection)),Parent (%) (trypsin [1]; [5]),mode of enzymatic degradation (cleavage site / products) (trypsin [1]),not cleaved (trypsin [2]),cleaved bond (trypsin [2]),fragment found (trypsin [2])
CC(=O)OCC1OC(OC2C(COC(C)=O)OC(OC3C(COC(C)=O)OC(OCC(=O)NC(CCCCN)C(=O)NC(CCCCN)C(=O)NC(CCCNC(=N)N)C(=O)NCC(=O)NCC(=O)NC(CO)C(=O)O)C(OC(C)=O)C3OC(C)=O)C(OC(C)=O)C2OC(C)=O)C(OC(C)=O)C(OC(C)=O)C1OC(C)=O (stereo not shown) [Compound 1],5,0,20,100,75,0,hydrolysis is initially observed between the arginine and glycine residues,–,–,–
N=C(N)NCCCC(NC(=O)C(CCCCN)NC(=O)C(CCCCN)NC(=O)OCC1c2ccccc2-c2ccccc21)C(=O)NCC(=O)NCC(=O)NC(CO)C(=O)O (stereo not shown) [Compound 4] (Fmoc-KKRGGS-OH; configuration not given here),4,54,4,45,92,1,hydrolysis occurs sequentially inward from the N-terminus,–,–,–
"Compound 2: Crude triphenylmethyl protected glycopeptide from peptide A (SEQ ID No. 1) and carbohydrate glycolic acid C (KKRGGS; also: glycopeptide with carbohydrate glycolic acid C, triphenylmethyl protected)",0,67,–,–,60,27,"a single, as yet uncharacterized product of the enzyme reaction",–,–,–
KKRGGS,–,–,–,–,–,–,–,100% parent at 40 minutes; no degradation products observed,–,–
KKRGGS [1],–,–,–,–,–,–,–,–,"arginine-glycine, first_seen",the two lysine residues conjugated to the carbohydrate
